Test results from patent publication US7446195B2, “High affinity thiophene-based and furan-based kinase ligands” (Schering Corporation, priority 2005, dated 2008).

What follows are compounds tested against CDK-2 (Homo sapiens, UniProt P24941) (assay: CDK-2 inhibition (Table 1; fluorescence polarization displacement assay)). Conditions: inhibitory effectiveness toward CDK-2.
Type: binding
Method: The affinity of lead inhibitors binding to CDK-2 and CDK-2/cyclin A were determined by measuring a Ki value using a fluorescence polarization displacement assay. The deacetylated form of compound BMS-250595 was reacted with Alexa Fluor 647 to generate a compound (BMS-Alexa Fluor647) that bound to both proteins and provided a signal for fluorescence polarization displacement. Binding assays were performed in a 384 well Costar NBS coated plate. A total volume of […] contained concentrations of CDK-2 or CDK-2/cyclin A at […], respectively. The concentration of BMS-Alexa Fluor647 was 50 nM. Serial dilutions of compounds were added to 12 wells. The final buffer concentration was 10 mM Hepes, pH 7.5, 150 mM NaCl, and 1 mM DTT. Samples were incubated at room temperature for 15 minutes and then read in an Analyst HT instrument using an excitation and emission wavelength of 580 and 680 nm, respectively. The […] curve fitting tool described by Zhang et al., 2004 (Zhang R., Mayhood T., Lipari P., Wang Y., Durkin D., Syto R., Gesell J., McNemar C., and Windsor W., Analytical Biochemistry 331 (2004) 138-146)

IC50, ≥ 40 µM:
O=C(NC[C@@H]1CCNC1)c1ccc(C(=O)Nc2ccc(-n3cncn3)cc2)s1 [Compound 138]
O=C(Nc1ccc(-n2cncn2)cc1)c1ccc(C(=O)NC2CCNCC2)s1 [Compound 139]
CN(C)CCCNC(=O)c1ccc(C(=O)Nc2ccc(-n3cncn3)cc2)s1 [Compound 140]
CN1CCC(NC(=O)c2ccc(C(=O)Nc3ccc(-n4cncn4)cc3)s2)CC1 [Compound 141]
Cc1cc(NC(=O)c2ccc(C(=O)Nc3ccc(-n4cncn4)cc3)s2)ccc1F [Compound 142]
Cn1cnc(CCNC(=O)c2ccc(C(=O)Nc3ccc(-n4cncn4)cc3)s2)c1 [Compound 143]
O=C(NCCN1CCCCC1)c1ccc(C(=O)Nc2ccc(-n3cncn3)cc2)s1 [Compound 144]
CN1CCCC1CCNC(=O)c1ccc(C(=O)Nc2ccc(-n3cncn3)cc2)s1 (centres unmarked) [Compound 145]
O=C(NCCN1CCNC1=O)c1ccc(C(=O)Nc2ccc(-n3cncn3)cc2)s1 [Compound 146]
O=C(NCCN1CCOCC1)c1ccc(C(=O)Nc2ccc(-n3cncn3)cc2)s1 [Compound 147]
O=C(Nc1ccc(-n2cncn2)cc1)c1ccc(C(=O)Nc2ccc3c(c2)OCO3)s1 [Compound 148]
COc1ccc(NC(=O)c2ccc(C(=O)Nc3ccc(-n4cncn4)cc3)s2)cc1F [Compound 149]
O=C(Nc1ccc(-n2cncn2)cc1)c1ccc(C(=O)N2CCCC2c2cccnc2)s1 (centres unmarked) [Compound 150]
COc1ccc(NC(=O)c2ccc(C(=O)Nc3ccc(-n4cncn4)cc3)s2)cc1OC [Compound 151]
O=C(Nc1ccc(-n2cncn2)cc1)c1ccc(C(=O)N2CCN(C3CCCC3)CC2)s1 [Compound 152]
CC(C)[C@@H](CO)NC(=O)c1ccc(C(=O)Nc2ccc(-n3cncn3)cc2)s1 [Compound 153]
O=C(NC[C@H](O)c1ccccc1)c1ccc(C(=O)Nc2ccc(-n3cncn3)cc2)s1 [Compound 154]
Cc1cnc(NC(=O)c2ccc(C(=O)Nc3ccc(-n4cncn4)cc3)s2)s1 [Compound 155]
O=C(NCCc1ccccn1)c1ccc(C(=O)Nc2ccc(-n3cncn3)cc2)s1 [Compound 156]
COc1cccc(NC(=O)c2ccc(C(=O)Nc3ccc(-n4cncn4)cc3)s2)c1 [Compound 157]
O=C(NCc1nc2ccccc2[nH]1)c1ccc(C(=O)Nc2ccc(-n3cncn3)cc2)s1 [Compound 158]
Cn1c(NC(=O)c2ccc(C(=O)Nc3ccc(-n4cncn4)cc3)s2)nc2ccccc21 [Compound 159]
O=C(Nc1ccc(-n2cncn2)cc1)c1ccc(C(=O)Nc2ccc3c(c2)C(=O)OC3)s1 [Compound 160]
O=C(Nc1ccc(-n2cncn2)cc1)c1ccc(C(=O)Nc2ccc3ncsc3c2)s1 [Compound 161]
O=C(Nc1ccc(-n2cncn2)cc1)c1ccc(C(=O)Nc2cccc(-c3cnco3)c2)s1 [Compound 162]
O=C(Nc1ccc(-n2cncn2)cc1)c1ccc(C(=O)Nc2cccc(O)c2)s1 [Compound 163]
Nc1ccc(CNC(=O)c2ccc(C(=O)Nc3ccc(-n4cncn4)cc3)s2)cn1 [Compound 164]
O=C(Nc1ccc(-n2cncn2)cc1)c1ccc(C(=O)Nc2ccccc2Cl)s1 [Compound 165]
O=C(Nc1ccc(-n2cncn2)cc1)c1ccc(C(=O)Nc2cc(F)ccc2F)s1 [Compound 166]
